Experimental data reported in patent publication US9359404B2, “Methods and products for treating preeclampsia and modulating blood pressure” (Scott & White Healthcare, priority 2011, dated 2016).
Ends that are not written are not given here.

Assays:
Aortic rings = experiment: Vasodilation/endothelial function of aortic rings (isometric force transducer); format: in vivo; conditions: vessels of TLR agonist-treated pregnant mice, phenylephrine contraction, acetylcholine relaxation
Experimental: Experimental Design: Mice were treated as described in Example 1.
Vasodilation/Endothelial Function: Aortic rings were connected to an isometric force transducer in a custom-made 15-ml organ chamber filled with 37° C. physiological salt solution (119 mM NaCl, 4.7 mM KCl, 25 mM NaHCO3, 1.18 mM KH2PO4, 1.17 mM MgSO4-7H2O, 11.1 mM Dextrose, 2.5 mM CaCl2) with 95% O2-5% CO2. All experiments were performed in the presence of indomethacin […] to inhibit prostacyclin production by cyclooxygenase. Passive tension on the vessels was set at 400 mg based on previously generated length-tension curves, and isometric force generation was recorded continuously with a PowerLab system (AD Instruments, Colorado Springs, Colo.). After a 60-min equilibration period, vessels were contracted with phenylephrine […] and repeated until reproducible contractions were obtained. […] was administered to test the functional integrity of endothelium as measured by a relaxation response. Concentration-response curves were obtained in a half-log, cumulative fashion in response to acetylcholine (1 nM to […]) following contraction to an EC70 concentration of phenylephrine. Relaxation responses were expressed as percent relaxation from phenylephrine-induced contraction. […]

[1] = system: splenic CLIP+γδ T and B cells; experiment: Splenic CLIP+ γδ T cells and B cells after TLR3 or TLR7 activation in pregnant mice (flow cytometry); format: in vivo; conditions: for splenic CLIP+γδ T cells: pregnant mice treated with TLR agonist versus vehicle-treated pregnant controls
Text: Next, it was important to determine whether this effect also happens in vivo. Therefore, we tested whether TLR activation via TLR3 or TLR7, which cause PE in mice only if they are pregnant, increases splenic CLIP+γδ T and B cells in mice.
It was shown that MHC class II engagement, in the absence of antigen receptor engagement, can lead to the death of APCs including B cells. Since TLR-mediated activation of B cells results in ectopic CLIP expression (FIGS. 11 and 12) we sought to determine whether CLIP serves as a negative regulator of B cell death. To test this mouse splenic B cells from C57B16 mice or CLIP KO mice were activated, with or without a TLR agonist, for 48 hrs. […] Splenocytes were analyzed by flow cytometry.

pregnant mice [2] = experiment: Systolic blood pressure (tail-cuff plethysmography) in pregnant mice given TLR agonists with or without TPP; format: in vivo, C57BL/6 mice; conditions: pregnant mice treated with TLR agonist alone, day 17
Experimental: (§1) Experimental Design: C57BL/6 female mice were bred with male C57BL/6 mice. At day 13 mice were injected IP with vehicle, Poly I:C (SIGMA PO913 50 mg), CLO097 (Invivogen tlrl-C95-5), or R837 (Invivogen tlrl imq) with or without TPP (FRIMAVLAS (SEQ ID NO: 5). Mice were injected a total of 3 times, every other day. At day 18 mice were euthanized, uterus/pups, blood, blood vessels, and spleen were removed.
Blood Pressure: Systolic arterial blood pressure was measured by tail-cuff plethysmography. […] were trained for three days prior to data collection. Animals were warmed to 32° C. and measurements were taken using an IITC Model 59 amplifier (Woodland Hills, Calif.), a system which correlates well with telemetry measurements of systolic blood pressure.
Pregnant mice (P) were treated with one of three TLR agonists to induce a physiological condition which mimics preeclampsia. Poly I:C is a TLR3 agonist and is well established in inducing characteristics of preeclampsia in mice. R837 is a […] activator of TLR7 but not TLR8. Similar to Poly I:C R837 induces characteristics of preeclampsia in mice. CLO097 is a […] that activates TLR7 and TLR8. While CLO097 induces some of the characteristics of preeclampsia the response is somewhat muted. […] The blood pressure of each mouse was measured on day 17 following treatment.

[3] = system: pregnant mice with PE induced by TLR3 or TLR7 activation; experiment: Prevention of TLR3/TLR7-induced PE in pregnant mice, daily TPP gestational days 13-17; format: in vivo
Text: FIG. 14 is a series of graphs depicting results from the daily administration of the CLIP-displacing peptide TPP. Daily administration of the CLIP-displacing peptide TPP (“Pep”-gestational days 13-17) prevented the development of hypertension, endothelial dysfunction, proteinuria, fetal demise, increased γδT cells, and decreased regulatory T cells in pregnant (P) mice treated with the TLR7 agonist R837 (PR mice) or the TLR3 agonist poly I:C (PPIC mice) on gestational days 13, 15, and 17.
TPP was utilized to displace CLIP on immune cells in mice during pregnancy.

pregnant mice [4] = experiment: Total number of pups and malformed pups at day 18; format: in vivo, C57BL/6 mice; conditions: day 18, versus normal pregnancies or pregnancies treated with TLR agonists
Experimental: as §1
The number of pups and malformed pups was relatively consistent across all groups at this time point.

[5] = system: CLIP on the surface of B220 cells; experiment: Immune cell markers on splenocytes: CLIP on B220 cells; format: in vivo; conditions: pregnant mice, Poly I:C alone
Experimental: Experimental Design: Mice were treated as described in Example 1. Splenocytes were isolated and stained for CD3, CD4, CD8, CD11b, Ly6G/C, CD25, FoxP3, CD19, B220, CD5, CLIP, and Gamma Delta TCR.
FIG. 9 is a set of graphs that depicts the removal of all CLIP (9A) versus bright CLIP (9B) and FIG. 9C from the surface of B220 cells. […] TLR agonists include CLO097; R837, and Poly I:C. FIG. 9C depicts the percentage of CLIP+cells resulting from Poly I:C stimulation with and without TPP.

Row | Compound | relaxation response (Aortic rings) | splenic CLIP+γδ T cells [1] | blood pressure (pregnant mice [2]) | safety, side effects on the mother or the pups [3] | number of malformed pups (pregnant mice [4]) | total number of pups (pregnant mice [4]) | B cell death (splenic B cells) ([1]; PE mice versus normal pregnancy) | CLIP+ B cells [5]
1 | CC(C)Cn1cnc2c(N)nc3ccccc3c21 [R837] | relaxation response is delayed | increased significantly | significantly increased blood pressure |  |  |  |  | 
2 | FRIMAVLAS [TPP, FRIMAVLAS] |  |  |  | safe in mice and has no side effects on the mother or the pups | caused no increase | caused no increase |  | 
3 | Poly I:C | relaxation response is delayed | increased significantly | significantly increased blood pressure |  |  |  | did not experience the increase in B cell death | significant increase
